{"source": "patent US9006235B2", "about": "“Inhibitors of human immunodeficiency virus replication” (priority 2012, dated 2015)", "system": "recombinant NL-Rluc virus", "experiment": "Inhibition of HIV replication (NL-Rluc virus, luciferase readout in MT-2 cells)", "format": "cell-based", "conditions": "Human immunodeficiency virus 1, MT2, 120 h", "note": "Like-named read-outs stand apart in the source and are kept apart here."}
{"molecule": "Cc1nc2cc(NC(=O)C(Oc3ccccc3)C(C)C)nn2c(-c2cc(F)c3c(c2C)CCCO3)c1[C@H](OC(C)(C)C)C(=O)O", "note": "(mixture of isomers) [Example 24, (2S)-2-tert-butoxy-2-(7-(8-fluoro-5-methylchroman-6-yl)-5-methyl-2-(3-methyl-2-phenoxybutanamido)pyrazolo[1,5-a]pyrimidin-6-yl)acetic acid]", "values": [{"measurement": "EC50", "setting": "read-out: Activity", "value": "< 100", "unit": "nM"}]}
{"molecule": "Cc1nc2cc(N)nn2c(-c2cc(F)c3c(c2C)CCCO3)c1[C@H](OC(C)(C)C)C(=O)O", "note": "[Example 1, (2S)-2-(2-amino-7-(8-fluoro-5-methylchroman-6-yl)-5-methylpyrazolo[1,5-a]pyrimidin-6-yl)-2-tert-butoxyacetic acid]", "values": [{"measurement": "EC50", "value": 2480, "unit": "nM"}, {"measurement": "EC50", "setting": "read-out: Activity", "value": "> 1000", "unit": "nM"}]}
{"molecule": "Cc1nc2cc(NC(=O)CCC3CCCC3)nn2c(-c2cc(F)c3c(c2C)CCCO3)c1[C@H](OC(C)(C)C)C(=O)O", "note": "[Example 2, (2S)-2-tert-butoxy-2-(2-(3-cyclopentylpropanamido)-7-(8-fluoro-5-methylchroman-6-yl)-5-methylpyrazolo[1,5-a]pyrimidin-6-yl)acetic acid]", "values": [{"measurement": "EC50", "setting": "read-out: Activity", "value": "< 100", "unit": "nM"}]}
{"molecule": "Cc1nc2cc(NC(=O)Cc3ccc(F)cc3)nn2c(-c2cc(F)c3c(c2C)CCCO3)c1[C@H](OC(C)(C)C)C(=O)O", "note": "[Example 3, (2S)-2-tert-butoxy-2-(7-(8-fluoro-5-methylchroman-6-yl)-2-(2-(4-fluorophenyl)acetamido)-5-methylpyrazolo[1,5-a]pyrimidin-6-yl)acetic acid]", "values": [{"measurement": "EC50", "value": 80, "unit": "nM"}, {"measurement": "EC50", "setting": "read-out: Activity", "value": "< 100", "unit": "nM"}]}
{"molecule": "Cc1nc2cc(NC(=O)Cc3ccccc3)nn2c(-c2cc(F)c3c(c2C)CCCO3)c1[C@H](OC(C)(C)C)C(=O)O", "note": "[Example 4, (2S)-2-tert-butoxy-2-(7-(8-fluoro-5-methylchroman-6-yl)-5-methyl-2-(2-phenylacetamido)pyrazolo[1,5-a]pyrimidin-6-yl)acetic acid]", "values": [{"measurement": "EC50", "value": 120, "unit": "nM"}, {"measurement": "EC50", "setting": "read-out: Activity", "value": "100 to 1000", "unit": "nM"}]}
{"molecule": "Cc1nc2cc(NC(=O)c3cccc(F)c3)nn2c(-c2cc(F)c3c(c2C)CCCO3)c1[C@H](OC(C)(C)C)C(=O)O", "note": "[Example 5, (2S)-2-tert-butoxy-2-(7-(8-fluoro-5-methylchroman-6-yl)-2-(3-fluorobenzamido)-5-methylpyrazolo[1,5-a]pyrimidin-6-yl)acetic acid]", "values": [{"measurement": "EC50", "setting": "read-out: Activity", "value": "< 100", "unit": "nM"}]}
{"molecule": "COc1cccc(C(=O)Nc2cc3nc(C)c([C@H](OC(C)(C)C)C(=O)O)c(-c4cc(F)c5c(c4C)CCCO5)n3n2)c1", "note": "[Example 6, (2S)-2-tert-butoxy-2-(7-(8-fluoro-5-methylchroman-6-yl)-2-(3-methoxybenzamido)-5-methylpyrazolo[1,5-a]pyrimidin-6-yl)acetic acid]", "values": [{"measurement": "EC50", "setting": "read-out: Activity", "value": "< 100", "unit": "nM"}]}
{"molecule": "Cc1nc2cc(NC(=O)c3cccc(OCc4ccccc4)c3)nn2c(-c2cc(F)c3c(c2C)CCCO3)c1[C@H](OC(C)(C)C)C(=O)O", "note": "[Example 7, (2S)-2-(2-(3-(benzyloxy)benzamido)-7-(8-fluoro-5-methylchroman-6-yl)-5-methylpyrazolo[1,5-a]pyrimidin-6-yl)-2-tert-butoxyacetic acid]", "values": [{"measurement": "EC50", "setting": "read-out: Activity", "value": "< 100", "unit": "nM"}]}
{"molecule": "Cc1nc2cc(NC(=O)c3cccc(C#N)c3)nn2c(-c2cc(F)c3c(c2C)CCCO3)c1[C@H](OC(C)(C)C)C(=O)O", "note": "[Example 8, (2S)-2-tert-butoxy-2-(2-(3-cyanobenzamido)-7-(8-fluoro-5-methylchroman-6-yl)-5-methylpyrazolo[1,5-a]pyrimidin-6-yl)acetic acid]", "values": [{"measurement": "EC50", "setting": "read-out: Activity", "value": "100 to 1000", "unit": "nM"}]}
{"molecule": "Cc1nc2cc(NC(=O)COCc3ccccc3)nn2c(-c2cc(F)c3c(c2C)CCCO3)c1[C@H](OC(C)(C)C)C(=O)O", "note": "[Example 9, (2S)-2-(2-(2-(benzyloxy)acetamido)-7-(8-fluoro-5-methylchroman-6-yl)-5-methylpyrazolo[1,5-a]pyrimidin-6-yl)-2-tert-butoxyacetic acid]", "values": [{"measurement": "EC50", "setting": "read-out: Activity", "value": "< 100", "unit": "nM"}]}
{"molecule": "Cc1ccc(C(=O)Nc2cc3nc(C)c([C@H](OC(C)(C)C)C(=O)O)c(-c4cc(F)c5c(c4C)CCCO5)n3n2)cc1C", "note": "[Example 10, (2S)-2-tert-butoxy-2-(2-(3,4-dimethylbenzamido)-7-(8-fluoro-5-methylchroman-6-yl)-5-methylpyrazolo[1,5-a]pyrimidin-6-yl)acetic acid]", "values": [{"measurement": "EC50", "setting": "read-out: Activity", "value": "< 100", "unit": "nM"}]}
